# Test system: HEK293T cells carrying the ATF4 luciferase reporter
# Assay: ATF4-Luc assay, in vitro model of Vanishing Cell White Matter Disease (VWMD)
# Format: cell-based
# Details: Homo sapiens, HEK-293T, 1 μg/mL tunicamycin, 7 hours, One Glo luminescence
# Description: In order to test exemplary compounds of the invention in a cellular context, a stable VWMD cell line was first constructed. The ATF4 reporter was prepared by fusing the human full-length ATF4 5′-UTR (NCBI Accession No. BC022088.2) in front of the firefly luciferase (FLuc) coding sequence lacking the initiator methionine as described in Sidrauski et al (eLife 2013). The construct was used to produce recombinant retroviruses using standard methods and the resulting viral supernatant was used to transduce HEK293T cells, which were then subsequently selected with puromycin to generate a stable cell line.
# HEK293T cells carrying the ATF4 luciferase reporter were plated on polylysine coated 384-well plates (Greiner Bio-one) at 30,000 cells per well. Cells were treated the next day with 1 μg/mL tunicamycin and 200 nM of a compound of Formula (I) for 7 hours. Luminescence was measured using One Glo (Promega) as specified by the manufacturer. Cells were maintained in DMEM with L-glutamine supplemented with 10% heat-inactivated FBS (Gibco) and Antibiotic-Antimycotic solution (Gibco).
# Table 2 below summarizes the EC50 data obtained using the ATF4-Luc assay for exemplary compounds of the invention.
row,SMILES,EC50 [nM]
1,"O=C(COc1ccc(Cl)c(F)c1)NC12CC(NC(=O)c3ccc(C4CC4)cn3)(C1)C2 [Compound 143, N-{3-[2-(4-chloro-3-fluorophenoxy)acetamido]bicyclo[1.1.1]pentan-1-yl}-5-cyclopropylpyridine-2-carboxamide]",50 to 250
2,"O=C(COc1ccc(Cl)c(F)c1)NC12CC(NC(=O)c3c(F)cccc3F)(C1)C2 [Compound 512, N-{3-[2-(4-chloro-3-fluorophenoxy)acetamido]bicyclo[1.1.1]pentan-1-yl}-2,6-difluorobenzamide]",> 2000
3,"Cc1nc(C(=O)NC23CCC(NC(=O)COc4ccc(Cl)c(F)c4)(CC2)[C@H](O)C3)c(C)s1 [Compound 497, N-{(3R)-4-[2-(4-chloro-3-fluorophenoxy)acetamido]-3-hydroxybicyclo[2.2.2]octan-1-yl}-2,5-dimethyl-1,3-thiazole-4-carboxamide]",250 to 1000
4,"O=C(COc1ccc(Cl)c(F)c1)NC12CCC(Nc3cnc(C(F)(F)F)cn3)(CC1)CC2 [Compound 100, 2-(4-chloro-3-fluorophenoxy)-N-(4-{[5-(trifluoromethyl)pyrazin-2-yl]amino}bicyclo[2.2.2]octan-1-yl)acetamide]",250 to 1000
5,"CCc1cnc(C(=O)NC23CCC(NC(=O)COc4ccc(Cl)c(F)c4)(C2)C3)cn1 [Compound 712, N-{4-[2-(4-chloro-3-fluorophenoxy)acetamido]bicyclo[2.1.1]hexan-1-yl}-5-ethylpyrazine-2-carboxamide]",250 to 1000
6,"O=C(COc1ccc(Cl)c(F)c1)NC12CC(Nc3ccc(C(F)(F)F)cn3)(C1)C2 [Compound 103, 2-(4-chloro-3-fluorophenoxy)-N-(3-{[5-(trifluoromethyl)pyridin-2-yl]amino}bicyclo[1.1.1]pentan-1-yl)acetamide]",1000 to 2000
7,"O=C(COc1ccc(Cl)c(F)c1)NC12CC(NC(=O)c3cc(N4CCCC4)ccn3)(C1)C2 [Compound 181, N-{3-[2-(4-chloro-3-fluorophenoxy)acetamido]bicyclo[1.1.1]pentan-1-yl}-4-(pyrrolidin-1-yl)pyridine-2-carboxamide]",250 to 1000
8,"Cc1cc(C(=O)NC23CC(NC(=O)COc4ccc(Cl)c(F)c4)(C2)C3)n(C(F)F)n1 [Compound 913, N-{3-[2-(4-chloro-3-fluorophenoxy)acetamido]bicyclo[1.1.1]pentan-1-yl}-1-(difluoromethyl)-3-methyl-1H-pyrazole-5-carboxamide]",250 to 1000
9,"CC(C)c1cccc(C(=O)NC23CCC(NC(=O)COc4ccc(Cl)c(F)c4)(CC2)C(O)C3)n1 (stereo not shown) [Compound 911, N-{4-[2-(4-chloro-3-fluorophenoxy)acetamido]-3-hydroxybicyclo[2.2.2]octan-1-yl}-6-(propan-2-yl)pyridine-2-carboxamide]",250 to 1000
10,"Cc1ccn2c(=O)c(C(=O)NC34CC(NC(=O)COc5ccc(Cl)c(F)c5)(C3)C4)cnc2c1 [Compound 314, N-{3-[2-(4-chloro-3-fluorophenoxy)acetamido]bicyclo[1.1.1]pentan-1-yl}-8-methyl-4-oxo-4H-pyrido[1,2-a]pyrimidine-3-carboxamide]",> 2000
11,"COCc1nc(C(=O)NC23CC(NC(=O)COc4ccc(Cl)c(Cl)c4)(C2)C3)cs1 [Compound 925, N-{3-[2-(3,4-dichlorophenoxy)acetamido]bicyclo[1.1.1]pentan-1-yl}-2-(methoxymethyl)-1,3-thiazole-4-carboxamide]",< 50
12,"Cc1cc(C(=O)NC23CCC(NC(=O)COc4ccc(Cl)c(F)c4)(CC2)[C@@H](O)C3)n(C)n1 (single isomer, unassigned) [Compound 485]",< 50
13,"O=C(COc1ccc(Cl)c(F)c1)NC12CC(NC(=O)c3ccc(C(F)(F)F)cn3)(C1)C2 [Compound 120, N-{3-[2-(4-chloro-3-fluorophenoxy)acetamido]bicyclo[1.1.1]pentan-1-yl}-5-(trifluoromethyl)pyridine-2-carboxamide]",50 to 250
14,"Cc1cc(C(=O)NC23CCC(NC(=O)COc4ccc(Cl)c(F)c4)(CC2)C(O)C3)nn1C (stereo not shown) [Compound 468, N-{4-[2-(4-chloro-3-fluorophenoxy)acetamido]-3-hydroxybicyclo[2.2.2]octan-1-yl}-1,5-dimethyl-1H-pyrazole-3-carboxamide]",250 to 1000
15,"O=C(COc1ccc(Cl)c(F)c1)NC12CCC(NC(=O)c3cscn3)(CC1)C(O)C2 (stereo not shown) [Compound 212, N-{4-[2-(4-chloro-3-fluorophenoxy)acetamido]-2-hydroxybicyclo[2.2.2]octan-1-yl}-1,3-thiazole-4-carboxamide]",250 to 1000
16,"COc1ccnc(C(=O)NC23CCC(NC(=O)COc4ccc(Cl)c(F)c4)(CC2)C(O)C3)c1 (stereo not shown) [Compound 924, N-{4-[2-(4-chloro-3-fluorophenoxy)acetamido]-3-hydroxybicyclo[2.2.2]octan-1-yl}-4-methoxypyridine-2-carboxamide]",> 2000
17,"O=C(COc1ccc(Cl)c(F)c1)NC12CC(NC(=O)c3cnc(C(F)(F)F)cn3)(C1)C2 [Compound 115, N-{3-[2-(4-chloro-3-fluorophenoxy)acetamido]bicyclo[1.1.1]pentan-1-yl}-5-(trifluoromethyl)pyrazine-2-carboxamide]",1000 to 2000
18,"COc1cc(C(=O)NC23CC(NC(=O)COc4ccc(Cl)c(F)c4)(C2)C3)ccc1F [Compound 531, N-{3-[2-(4-chloro-3-fluorophenoxy)acetamido]bicyclo[1.1.1]pentan-1-yl}-4-fluoro-3-methoxybenzamide]",1000 to 2000
19,"COc1cc(C(=O)NC23CC(NC(=O)COc4ccc(Cl)c(F)c4)(C2)C3)ccn1 [Compound 763, N-{3-[2-(4-chloro-3-fluorophenoxy)acetamido]bicyclo[1.1.1]pentan-1-yl}-2-methoxypyridine-4-carboxamide]",> 2000
20,"COc1ncccc1C(=O)NC12CC(NC(=O)COc3ccc(Cl)c(F)c3)(C1)C2 [Compound 809, N-{3-[2-(4-chloro-3-fluorophenoxy)acetamido]bicyclo[1.1.1]pentan-1-yl}-2-methoxypyridine-3-carboxamide]",> 2000
21,"O=C(COc1ccc(Cl)c(F)c1)NC12CC(NC(=O)c3cn4cccnc4n3)(C1)C2 [Compound 772, N-{3-[2-(4-chloro-3-fluorophenoxy)acetamido]bicyclo[1.1.1]pentan-1-yl}imidazo[1,2-a]pyrimidine-2-carboxamide]",> 2000
22,"Cc1cccnc1C(=O)NC12CC(NC(=O)COc3ccc(Cl)c(Cl)c3)(C1)C2 [Compound 739, N-{3-[2-(3,4-dichlorophenoxy)acetamido]bicyclo[1.1.1]pentan-1-yl}-3-methylpyridine-2-carboxamide]",> 2000
23,"O=C(COc1ccc(Cl)c(F)c1)NC12CC(NC(=O)c3noc4c3CCCC4)(C1)C2 [Compound 880, N-{3-[2-(4-chloro-3-fluorophenoxy)acetamido]bicyclo[1.1.1]pentan-1-yl}-4,5,6,7-tetrahydro-1,2-benzoxazole-3-carboxamide]",> 2000
24,"COc1cscc1C(=O)NC12CC(NC(=O)COc3ccc(Cl)c(F)c3)(C1)C2 [Compound 557, N-{3-[2-(4-chloro-3-fluorophenoxy)acetamido]bicyclo[1.1.1]pentan-1-yl}-4-methoxythiophene-3-carboxamide]",> 2000
25,"Cc1cnc(C(=O)NC23CCC(NC(=O)COc4ccc(Cl)c(F)c4)(CC2)C(O)C3)c(C)n1 (stereo not shown) [Compound 286, N-{4-[2-(4-chloro-3-fluorophenoxy)acetamido]-3-hydroxybicyclo[2.2.2]octan-1-yl}-3,5-dimethylpyrazine-2-carboxamide]",250 to 1000

# Reference: US10913727B2, “Modulators of the integrated stress pathway” (Calico Life Sciences LLC, priority 2016, dated 2021)
